Reference: article PMC8251916 (Chemistry (Weinheim an Der Bergstrasse, Germany), 2021)
Where two headings read alike, the source gives them in different places.

Tests used:
[1] = tested on: telo23-K+ (hybrid type human telomeric G4); experiment: UV-Vis titration, telo23-K+; format: binding; conditions: for Ka, telo23-K+: UV-Vis titration
Protocol: (§1) To obtain quantitative information on the binding of NDI 1 and PDI 3 to the previously assessed G4 and duplex DNA structures, ultraviolet‐visible absorbance spectroscopy (UV‐Vis) titrations were conducted (Figure 3 and S10). In all cases the ligand concentration was kept constant at 10 μM, whilst oligonucleotide was titrated in up to a final concentration of 30 μM. The observed binding isotherms were fitted to an independent/equivalent sites binding model, and binding constants (K a) were determined. […]
(§2) telo22-Na+ (antiparallel basket […]
(§3) telo23 and telo22 were selected as models for the human telomeric G-quadruplex under K+ and Na+ conditions, respectively, as they have been the subject of detailed structural studies,[S8,S9] […]
(§4) used. telo23 forms primarily a (3+1) hybrid structure under K+ conditions,[S8] whilst telo22 forms a single antiparallel fold.[S9]
The oligonucleotides were at a concentration of 5 µM and the buffers used were either potassium phosphate (100 mM, pH 7.4) for telo23-K+, EBR1-K+ and ds26-K+ or sodium phosphate (100 mM, pH 7.4) for telo22-Na+. The reported spectrum for each sample represents the average of 3 scans and is baseline corrected for the buffer used. Data processing was carried out using Prism 7 (GraphPad Software) with a 4-point second order smoothing polynomial applied to all spectra. Observed ellipticities were converted to molar ellipticity.
(§5) UV-Visible Absorbance Spectroscopy
Absorbance spectra were recorded on a Cary 60 UV-Visible (UV-Vis) spectrophotometer using a room-light immune fibre optic probe with 10 mm path length. The UV-Vis spectra were […]
were corrected for background and buffer absorbance. The oligonucleotides and buffer conditions were the same as employed in the CD experiments.
In the titrations, the concentration of ligand was fixed at 10 µM in an initial volume of 500 µL.
Aliquots of oligonucleotide were added using a microsyringe from a 100 µM stock solution in appropriate buffer containing also 10 µM ligand to maintain constant ligand concentration.
Note: the oligonucleotide solution was annealed by heating to 90 °C for 2 minutes and then cooling on ice prior to the addition of ligand (to avoid annealing in the presence of ligand).
Following addition, the solution was mixed thoroughly and the UV-visible spectrum was […]

[2] = tested on: telo22-Na+ (antiparallel basket human telomeric G4); experiment: UV-Vis titration, telo22-Na+; format: binding
Protocol: as §1, §2, §3, §4
(§6) The oligonucleotides were at a concentration of 5 µM and the buffers used were either potassium phosphate (100 mM, pH 7.4) for telo23-K+, EBR1-K+ and ds26-K+ or sodium phosphate (100 mM, pH 7.4) for telo22-Na+. […]
as §5
(§7) Absorbance spectra were recorded on a Cary 60 UV-Visible (UV-Vis) spectrophotometer using a room-light immune fibre optic probe with 10 mm path length. […]
(§8) were corrected for background and buffer absorbance. […]

[3] = tested on: EBR1-K+ (mixed G4 from T. brucei); experiment: UV-Vis titration, EBR1-K+; format: binding
Protocol: as §1, §2, §3, §4, §6, §5, §7, §8

[4] = tested on: ds26-K+ (self-complementary duplex); experiment: UV-Vis titration, ds26-K+; format: binding
Protocol: as §1, §2, §3, §4, §6, §5, §7, §8

[5] = tested on: F21T-K+ (human telomeric G-quadruplex, mixed parallel/hybrid); conditions: 200 nM DNA, previously reported data for 1, cited from earlier work
[6] = tested on: F21T-Na+ (human telomeric G-quadruplex, antiparallel); conditions: 200 nM DNA, previously reported data for 1, ref S16, cited from earlier work
[7] = tested on: FmycT-K+ (c-Myc promoter G-quadruplex, parallel); conditions: 200 nM DNA, previously reported data for 1, cited from earlier work
[8] = tested on: telo23-K+ (DNA, G4) TAGGGTTAGGGTTAGGGTTAGGG; experiment: UV-Vis titration; conditions: independent/equivalent sites, 10 µM ligand, DNA up to 30 µM, apparent
[9] = tested on: telo22-Na+ (DNA, G4) AGGGTTAGGGTTAGGGTTAGGG; experiment: UV-Vis titration; conditions: independent/equivalent sites, 10 µM ligand, DNA up to 30 µM, apparent
[10] = tested on: EBR1-K+ (DNA, G4) GGGCAGGGGGTGATGGGGAGGAGCCAGGG; experiment: UV-Vis titration; conditions: independent/equivalent sites, 10 µM ligand, DNA up to 30 µM, apparent
[11] = tested on: ds26-K+ (DNA, duplex) CAATCGGATCGAATTCGATCCGATTG; experiment: UV-Vis titration; conditions: independent/equivalent sites, 10 µM ligand, DNA up to 30 µM, apparent
[12] = tested on: EBR1-K+ (DNA, G4) GGGCAGGGGGTGATGGGGAGGAGCCAGGG; experiment: CD titration; conditions: 20 °C, 5 µM DNA, up to 10 equivalents ligand
[13] = tested on: F21T (DNA, G4) GGGTTAGGGTTAGGGTTAGGG; experiment: FRET melting; conditions: 10 mM Li cacodylate, 5 µM ligand, 200 nM DNA
[14] = tested on: FMycT (DNA, G4) TTGAGGGTGGGTAGGGTGGGTAA; experiment: FRET melting; conditions: 1 mM K+, 99 mM Li+; 10 mM Li cacodylate; 5 µM ligand, 200 nM DNA
[15] = tested on: F10T (DNA, hairpin, hexaethylene glycol (HEG) linker between 10 and 11) TATAGCTATATATAGCTATA; experiment: FRET melting; conditions: 10 mM K+, 90 mM Li+; 10 mM Li cacodylate; 5 µM ligand, 200 nM DNA
[16] = tested on: telo22-Na+ (DNA, G4) AGGGTTAGGGTTAGGGTTAGGG; experiment: NMR titration; conditions: 70 mM NaCl; 25 mM sodium phosphate pH 7.0, 10% D2O, 298 K; 185 µM DNA, up to 2 equivalents

| SMILES | Ka, telo23-K+ [1] | Ka, telo22-Na+ [2] | Ka, EBR1-K+ [3] | Ka, ds26-K+ [4] | Ka [8] | Ka [9] | Ka [10] | Ka [11] | further results |
| --- | --- | --- | --- | --- | --- | --- | --- | --- | --- |
| CN1CCN(CCCN2C(=O)c3ccc4c5c(ccc(c35)C2=O)C(=O)N(CCCN2CCN(C)CC2)C4=O)CC1 [Compound 1] | 6×10^6 | 6×10^4 | 2×10^6 | 1×10^6 | 6×10^6 | 6×10^4 | 2×10^6 | 1×10^6 | ΔTm F21T-K+ ([5]; 1 µM ligand, ref S16): 10 ± 1 °C; ΔTm F21T-K+ ([5]; 5 μM ligand): 14±2 °C; ΔTm F21T-K+ ([5]; 10 µM ligand, ref S16): 20 ± 1 °C; ΔTm F21T-Na+ ([6]; 1 µM ligand): -2 ± 1 °C; ΔTm F21T-Na+ ([6]; 10 µM ligand): 2 ± 1 °C; ΔTm FmycT-K+ ([7]; 1 µM ligand, ref S16): 0 ± 1 °C; ΔTm FmycT-K+ ([7]; 5 μM ligand): 7±2 °C; ΔTm FmycT-K+ ([7]; 10 µM ligand, ref S16): 13 ± 1 °C |
| CN1CCN(CCCNC(=O)c2ccc(Oc3ccc(C(C)(C)c4ccc(Oc5ccc(C(=O)NCCCN6CCN(C)CC6)c(C(=O)NCCCN6CCN(C)CC6)c5)cc4)cc3)cc2C(=O)NCCCN2CCN(C)CC2)CC1 [Compound 11] |  |  |  |  |  |  |  |  | binding [12]: yes; ΔTm ([13]; 10 mM K+, 90 mM Li+): 7±2 °C; ΔTm ([13]; 100 mM Na+): 1±1 °C; ΔTm [14]: 5±1 °C; ΔTm [15]: 0±1 °C; binding [16]: yes |
| CN1CCN(CCCN2C(=O)c3ccc4c5ccc6c7c(ccc(c8ccc(c3c48)C2=O)c75)C(=O)N(CCCN2CCN(C)CC2)C6=O)CC1 [Compound 3] | 2×10^6 | 8×10^5 | 3×10^5 | 5×10^4 | 2×10^6 | 8×10^5 | 3×10^5 | 5×10^4 | selectivity for telo23-K+ G4 over EBR1-K+ G4 ([1]; ratio of Ka, UV-Vis): ~7 fold; selectivity for telo23-K+ G4 over ds26-K+ duplex ([1]; ratio of Ka, UV-Vis): 40 fold |
